In the experiment the target is T1, Human IP6K1 (Homo sapiens, UniProt Q92551).
T1 construct: GST (N, cleaved yes); made in house; host or cells: C43 E. coli, pGEX-6P-2
The experiment in a line: IP6K1 high-throughput screen of the Sigma LOPAC (ADP-Glo Max, single point).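 Further: final compound concentration 10µM in 5% DMSO.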 It counts as biochemical. (ADP-Glo first removes unused ATP, then detects ADP through luciferase.)

The mark [1] stands for this setting: LOPAC single-point screen, ADP-Glo Max raw signal per well.
Setting [2] is: LOPAC single-point screen, Z-score from raw signal with plate average and StDev.
Setting [3] is: LOPAC single-point screen, Z-score against plate average and StDev.
[4] abbreviates: LOPAC single-point screen, ADP-Glo Max luminescence raw signal per well.
[5] abbreviates: LOPAC single-point screen, Z-score relative to plate average and StDev.
Setting [6] is: LOPAC single-point screen, Z-score from plate average and StDev.
The mark [7] stands for this setting: Sigma LOPAC single-point screen, ADP-Glo Max raw signal per well.
The mark [8] stands for this setting: Sigma LOPAC single-point screen, Z-score from plate average and StDev.

The record followed here is publication PMC5706701, “Development of a homogenous high-throughput assay for inositol hexakisphosphate kinase 1 activity” (PLoS ONE, 2017).

Counter-ions that a name gives are not always drawn. Like-named read-outs stand apart in the source and are kept apart here.

T1 sequence (Q92551 whole entry): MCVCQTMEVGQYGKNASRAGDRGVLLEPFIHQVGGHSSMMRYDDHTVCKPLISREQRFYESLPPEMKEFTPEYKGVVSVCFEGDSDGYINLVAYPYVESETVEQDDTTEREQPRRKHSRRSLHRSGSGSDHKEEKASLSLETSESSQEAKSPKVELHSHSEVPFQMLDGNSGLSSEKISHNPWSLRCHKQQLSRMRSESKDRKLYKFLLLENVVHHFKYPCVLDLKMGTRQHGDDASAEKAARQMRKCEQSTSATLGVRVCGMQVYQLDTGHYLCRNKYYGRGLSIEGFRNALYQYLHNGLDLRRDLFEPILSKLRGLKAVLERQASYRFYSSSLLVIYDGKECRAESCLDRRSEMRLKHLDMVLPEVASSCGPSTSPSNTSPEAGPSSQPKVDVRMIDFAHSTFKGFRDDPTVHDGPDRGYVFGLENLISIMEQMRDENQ

Turning to `Cl.c1ccc2sc(C3(N4CCCCC4)CCCCC3)cc2c1` [BTCP hydrochloride], under setting [1], the “Raw Signal” value was 55871. The same molecule displayed a Z-score under setting [2] of -0.3597.
As for `CN1C2CCC1CC(OC(=O)c1c[nH]c3ccccc13)C2.Cl` (centres unmarked), the “Raw Signal” value under setting [1] is recorded as 56078. This molecule also yielded a Z-score under setting [3] of 0.01053.
With `Cn1cc(C(=O)OCC2CCN(CCNS(C)(=O)=O)CC2)c2ccccc21` [GR 113808], the “Raw Signal” value under setting [1] turned out to be 56278. The same molecule registered a Z-score under setting [2] of -0.288.
Consider `O=c1ccc2ccc(O)c(O)c2o1` [Daphnetin], for which the “Raw Signal” value under setting [1] amounted to 55045. Also, the Z-score under setting [3] was -0.02478.
As to `NC(N)=NCCCCN=C(N)N` [Arcaine sulfate], the “Raw Signal” value under setting [1] turned out to be 57202. Moreover, the Z-score under setting [2] is given as -0.1252.
Consider `Br.CN=c1nc(-c2ccccc2)n(-c2ccccc2)s1` [SCH-202676 hydrobromide], for which the “Raw Signal” value under setting [4] turned out to be 51247. This molecule also registered a Z-score under setting [5] of -0.928.
Turning to `CC(=O)NCCc1c[nH]c2ccc(O)cc12` [N-Acetyl-5-hydroxytryptamine], the “Raw Signal” value under setting [4] is 55051. Besides, the Z-score under setting [5] is given as -0.5041.
Regarding `CC1=C(/C=C/C(C)=C/C=C/C(C)=C/C(=O)Nc2ccc(O)cc2)C(C)(C)CCC1` [Retinoic acid p-hydroxyanilide], the “Raw Signal” value under setting [1] is given as 55637. Moreover, the Z-score under setting [3] is reported as 0.09545.
Regarding `CC[C@]1(O)C[C@@H]2CN(CCc3c([nH]c4ccccc34)[C@@](C(=O)OC)(c3cc4c(cc3OC)N(C)[C@H]3[C@@](O)(C(=O)OC)[C@H](OC(C)=O)[C@]5(CC)C=CCN6CC[C@]43[C@@H]65)C2)C1.O=S(=O)(O)O` [Vinblastine sulfate salt], under setting [1], the “Raw Signal” value was 55305. Also, the Z-score under setting [2] is -0.1396.
`O=C1N(c2ccccc2)c2ccccc2C1(Cc1ccncc1)Cc1ccncc1` [Linopirdine]: the “Raw Signal” value under setting [1] came to 55241. The molecule also came in with a Z-score under setting [3] of 0.1424.
Regarding `CN(C)CCC(c1ccccc1)c1ccccn1` (centres unmarked) [Pheniramine maleate], the “Raw Signal” value under setting [1] amounted to 57488. Also, under setting [3], the Z-score is 0.2845.
Take `COC(=O)c1cc2c(cn1)[nH]c1ccccc12` [Methyl beta-carboline-3-carboxylate]: the “Raw Signal” value under setting [1] was 53830. This molecule also gave a Z-score under setting [2] of -0.2715.
Turning to `N.N.[Cl][Pt][Cl]` [Cisplatin], the “Raw Signal” value under setting [4] is recorded as 49642. This molecule returned a Z-score under setting [5] of -0.7984.
Turning to `Cl.Oc1cc2c(cc1O)C(c1ccccc1)CNCC2` (racemic) [(±)-SKF-38393 hydrochloride], under setting [4], the “Raw Signal” value is 48418. Under setting [5], this molecule had a Z-score of -1.371.
Taken in the same sequence, the figures for `NC1(C(=O)O)CCc2cc(C(=O)O)ccc21` (centres unmarked) [AIDA] were 52578 and -0.9397.
In the case of `CN(C)C(=O)Oc1cccc([N+](C)(C)C)c1` [Neostigmine bromide], the “Raw Signal” value under setting [1] is reported as 55937. The Z-score under setting [3] came to 0.2593.
Turning to `C[C@H]1O[C@@H](n2cc(F)c(=O)[nH]c2=O)[C@H](O)[C@@H]1O` [5-fluoro-5-deoxyuridine], under setting [1], the “Raw Signal” value was 53997. The Z-score under setting [2] is on record as -0.2376.
Consider `CNC(=C[N+](=O)[O-])NCCSCc1ccc(CN(C)C)o1` [Ranitidine hydrochloride], for which, under setting [1], the “Raw Signal” value came out at 57122. Under setting [3], this molecule showed a Z-score of 0.2134.
Regarding `CCN1CCCC1CNC(=O)c1cc(S(N)(=O)=O)ccc1OC` (racemic) [(±)-Sulpiride], under setting [4], the “Raw Signal” value is 63231. Further, the Z-score under setting [6] is given as 1.4.
With `O=C(c1ccc(F)cc1)C1CCN(CCn2c(=O)[nH]c3ccccc3c2=O)CC1` [Ketanserin tartrate], the “Raw Signal” value under setting [7] was determined as 61310. The Z-score under setting [8] came to 1.027.
For the molecule `CN(C)CCCN1c2ccccc2CCc2ccc(Cl)cc21` [Clomipramine hydrochloride], the “Raw Signal” value under setting [7] amounted to 60543. Moreover, the Z-score under setting [8] was 0.4632.
For the molecule `COc1ccc2c(c1)c(CC(=O)O)c(C)n2Cc1ccc(F)cc1`, the “Raw Signal” value under setting [1] is 54531. Under setting [2], this molecule gave a Z-score of -0.1292.
For `Br.COc1ccc(-c2ccc(=N)n(CCCC(=O)O)n2)cc1` [SR-95531], the “Raw Signal” value was determined as 59972 and the Z-score turned out to be 0.7671.
`CC(N)(C(=O)O)c1ccc(C(=O)O)cc1` (racemic) [(±)-alpha-Methyl-4-carboxyphenylglycine]: under setting [1], the “Raw Signal” value worked out at 51961. Also, the Z-score under setting [2] is recorded as -0.4087.
For the molecule `C[C@]12CC[C@@H](O)C[C@@H]1CC[C@@H]1[C@@H]2CC[C@]2(C)C(=O)CC[C@@H]12` [Androsterone], the “Raw Signal” value was found to be 54396 and the Z-score is listed as -0.6195.
As for `O=C(O)c1cccnc1Nc1cccc(C(F)(F)F)c1` [Niflumic acid], the “Raw Signal” value under setting [4] worked out at 47033. The molecule further yielded a Z-score under setting [5] of -1.237.
With `CC(Oc1ccc(Oc2cnc3ccc(Cl)cc3n2)cc1)C(=O)O` (centres unmarked) [XK469], the “Raw Signal” value under setting [1] is given as 55038. Under setting [2], the Z-score is on record as -0.1915.
As to `Br.NC1CCc2cc(O)c(O)cc2C1` (centres unmarked) [6,7-ADTN hydrobromide], the “Raw Signal” value under setting [1] is given as 55279. Moreover, the Z-score under setting [3] was determined as 0.02274.
Take `CCCC(C)(COC(N)=O)COC(=O)NC(C)C` (centres unmarked) [Carisoprodol]: the “Raw Signal” value under setting [7] was determined as 61112. This molecule displayed a Z-score under setting [8] of 0.5634.
Consider `Cc1nc2sccn2c(=O)c1CCN1CCC(=C(c2ccccc2)c2ccc(F)cc2)CC1` [Diacylglycerol kinase inhibitor I], for which, under setting [7], the “Raw Signal” value came out at 59347. Also, the Z-score under setting [8] is 0.8489.
Turning to `COc1ccc2c(c[n+](C)c3c4cc5c(cc4ccc23)OCO5)c1OC` [Chelerythrine chloride], the “Raw Signal” value under setting [4] was found to be 66575. Further, the Z-score under setting [6] worked out at 1.5256.
Take `C/C(O)=C(\C#N)C(=O)Nc1cc(Br)ccc1Br` [LFM-A13]: under setting [7], the “Raw Signal” value was 58610. The same molecule came in with a Z-score under setting [8] of 0.7085.
In the case of `O=NN(CCCl)C(=O)NCCCl` [Carmustine], under setting [4], the “Raw Signal” value stood at 54247. For the same molecule, under setting [5], the Z-score is reported as -0.6457.
`C[C@H]1C[C@H]2[C@@H]3CCC4=CC(=O)C=C[C@]4(C)[C@@]3(Cl)[C@@H](O)C[C@]2(C)[C@@]1(O)C(=O)CO` [Beclomethasone]: the “Raw Signal” value under setting [1] is given as 55439. Under setting [2], this molecule registered a Z-score of -0.4358.
With `COc1ccc(C(=O)N2CCCC2=O)cc1` [Aniracetam], the “Raw Signal” value under setting [1] was 56032. The molecule also returned a Z-score under setting [2] of -0.3313.
For `Br.CCCN(CCC)C1CCc2cccc(O)c2C1` (racemic) [(±)-8-Hydroxy-DPAT hydrobromide], under setting [1], the “Raw Signal” value is on record as 55597. For the same molecule, under setting [3], the Z-score came to 0.08732.
Turning to `Cc1cccc(C#Cc2ccccc2)n1.Cl`, under setting [4], the “Raw Signal” value is 51049. The Z-score under setting [5] is recorded as -0.562.
Regarding `N[C@@H](Cn1cc(I)c(=O)[nH]c1=O)C(=O)O` [S-5-Iodowillardiine], the “Raw Signal” value under setting [1] amounted to 55016. The Z-score under setting [2] is reported as -0.1958.
Taken in the same sequence, the figures for `O=C(O)CC[N+](=O)[O-]` [3-Nitropropionic acid] were 53138 and -0.211.
As to `O=C(O)CCCc1ccc(N(CCCl)CCCl)cc1` [Chlorambucil], the “Raw Signal” value under setting [1] worked out at 57590. For the same molecule, the Z-score under setting [3] is -0.05691.
Take `O=C1OC(=O)[C@H]2[C@@H]1[C@@H]1CC[C@H]2O1` [Norcantharidin]: the “Raw Signal” value under setting [1] was determined as 52142. In addition, under setting [2], the Z-score is reported as -0.3783.
In the case of `N=C(N)NCCC[C@H](N)C(=O)O` [L-Arginine], the “Raw Signal” value under setting [1] is recorded as 58902. Under setting [3], this molecule came in with a Z-score of 0.1742.
Take `COc1ccc2c(c1)c(CC(=O)O)c(C)n2C(=O)c1ccc(Cl)cc1` [Indomethacin]: under setting [1], the “Raw Signal” value is 54719. Besides, the Z-score under setting [3] is recorded as 0.05469.
Consider `NC/C=C\C(=O)O` [cis-4-Aminocrotonic acid], for which, under setting [4], the “Raw Signal” value stood at 52551. Under setting [5], this molecule registered a Z-score of -0.6747.
On to `NC(=O)NO` [Hydroxyurea], for which the “Raw Signal” value under setting [4] is reported as 51854. This molecule also displayed a Z-score under setting [5] of -0.6728.
Consider `COc1cc2c(cc1OC)-c1c/c(=N\c3c(C)cc(C)cc3C)n(C)c(=O)n1CC2` [Trequinsin hydrochloride], for which, under setting [1], the “Raw Signal” value came to 54369. Under setting [2], the Z-score was -0.3215.
As for `O=S(=O)(NCCNC/C=C/c1ccc(Br)cc1)c1cccc2cnccc12` [H-89], the “Raw Signal” value under setting [4] is recorded as 53512. Further, the Z-score under setting [5] is on record as -0.7752.
`C[Se]C[C@H](N)C(=O)O.Cl` [Se-(methyl)selenocysteine hydrochloride]: the “Raw Signal” value under setting [1] came out at 55528. In addition, the Z-score under setting [3] was determined as 0.1906.
In the case of `C[C@]12C=CC(=O)C=C1CC[C@H]1[C@@H]3C[C@@H](O)[C@](O)(C(=O)CO)[C@@]3(C)C[C@H](O)[C@@]12F` [Triamcinolone], the “Raw Signal” value under setting [7] is on record as 60096. Under setting [8], this molecule had a Z-score of 0.7912.
As to `CCc1cccc2c3c([nH]c12)C(CC)(CC(=O)O)OCC3` (centres unmarked) [Etodolac], the “Raw Signal” value under setting [7] was 60333. Also, under setting [8], the Z-score is reported as 1.049.
For `CN1[C@@H]2CC[C@H]1C[C@@H](OC(c1ccccc1)c1ccccc1)C2` [Benztropine mesylate], the “Raw Signal” value under setting [7] is 60233. The molecule further returned a Z-score under setting [8] of 0.4086.
As for `Br.Br.N=C(N)SCCc1ccc(CCSC(=N)N)cc1` [1,4-PBIT dihydrobromide], the “Raw Signal” value under setting [4] came out at 52088. The molecule further yielded a Z-score under setting [5] of -0.7647.
On the same counts, the results for `O=C1Nc2ccc(I)cc2/C1=C/c1cc(Br)c(O)c(Br)c1` [GW5074] are 51521 and -0.7405.
As to `CN1CCc2ccccc2Cc2[nH]c3ccccc3c2CC1` [LE 300], the “Raw Signal” value came to 53844 and the Z-score was -0.09233.
For the molecule `CC1(C)CCC2=C(O1)c1ccccc1C(=O)C2=O` [beta-Lapachone], the “Raw Signal” value under setting [1] is 54181. Further, the Z-score under setting [3] is recorded as -0.03571.
